In brackets after ≈: the same amount, converted by molar mass.
System: P388
Assay: Cytotoxicity against mouse P388 cells
Format: functional, cell-based

SMILES | IC50
COc1ccc(C[C@H]2C(=O)N[C@@H](C)C(=O)N(C)[C@H]3Cc4ccc(cc4)Oc4cc(ccc4OC)C[C@@H](C(=O)N[C@H](C)C(=O)N[C@@H](C)C(=O)N2C)N(C)C3=O)cc1 | 0.0015 mg/L (≈ 0.00195 µM)
COc1ccc2cc1Oc1ccc(cc1)C[C@@H]1NC(=O)[C@@H](C)NC(=O)[C@@H]3Cc4ccc(OC)c(c4)Oc4ccc(cc4)C[C@@H](C(=O)N3C)N(C)C(=O)[C@H](C)NC(=O)[C@H](C2)NC1=O | 7.5 mg/L (≈ 8.86 µM)
